Laboratory results taken from ChEMBL document CHEMBL1255216, “Exploration of the amine terminus in a novel series of 1,2,4-triazolo-3-yl-azabicyclo[3.1.0]hexanes as selective dopamine D3 receptor antagonists” (J Med Chem, 2010).

Legend:
[1] = molecular target: D(3) dopamine receptor (Homo sapiens, UniProt P35462); assay: Antagonist activity at human dopamine D3 expressed in CHO cells assessed as inhibition of quinelorane-induced [35S]GTPgammaS binding; type: functional, cell-based
[2] = molecular target: Voltage-gated inwardly rectifying potassium channel KCNH2 (Homo sapiens, UniProt Q12809)
Sequence of Voltage-gated inwardly rectifying potassium channel KCNH2 (Q12809 whole entry): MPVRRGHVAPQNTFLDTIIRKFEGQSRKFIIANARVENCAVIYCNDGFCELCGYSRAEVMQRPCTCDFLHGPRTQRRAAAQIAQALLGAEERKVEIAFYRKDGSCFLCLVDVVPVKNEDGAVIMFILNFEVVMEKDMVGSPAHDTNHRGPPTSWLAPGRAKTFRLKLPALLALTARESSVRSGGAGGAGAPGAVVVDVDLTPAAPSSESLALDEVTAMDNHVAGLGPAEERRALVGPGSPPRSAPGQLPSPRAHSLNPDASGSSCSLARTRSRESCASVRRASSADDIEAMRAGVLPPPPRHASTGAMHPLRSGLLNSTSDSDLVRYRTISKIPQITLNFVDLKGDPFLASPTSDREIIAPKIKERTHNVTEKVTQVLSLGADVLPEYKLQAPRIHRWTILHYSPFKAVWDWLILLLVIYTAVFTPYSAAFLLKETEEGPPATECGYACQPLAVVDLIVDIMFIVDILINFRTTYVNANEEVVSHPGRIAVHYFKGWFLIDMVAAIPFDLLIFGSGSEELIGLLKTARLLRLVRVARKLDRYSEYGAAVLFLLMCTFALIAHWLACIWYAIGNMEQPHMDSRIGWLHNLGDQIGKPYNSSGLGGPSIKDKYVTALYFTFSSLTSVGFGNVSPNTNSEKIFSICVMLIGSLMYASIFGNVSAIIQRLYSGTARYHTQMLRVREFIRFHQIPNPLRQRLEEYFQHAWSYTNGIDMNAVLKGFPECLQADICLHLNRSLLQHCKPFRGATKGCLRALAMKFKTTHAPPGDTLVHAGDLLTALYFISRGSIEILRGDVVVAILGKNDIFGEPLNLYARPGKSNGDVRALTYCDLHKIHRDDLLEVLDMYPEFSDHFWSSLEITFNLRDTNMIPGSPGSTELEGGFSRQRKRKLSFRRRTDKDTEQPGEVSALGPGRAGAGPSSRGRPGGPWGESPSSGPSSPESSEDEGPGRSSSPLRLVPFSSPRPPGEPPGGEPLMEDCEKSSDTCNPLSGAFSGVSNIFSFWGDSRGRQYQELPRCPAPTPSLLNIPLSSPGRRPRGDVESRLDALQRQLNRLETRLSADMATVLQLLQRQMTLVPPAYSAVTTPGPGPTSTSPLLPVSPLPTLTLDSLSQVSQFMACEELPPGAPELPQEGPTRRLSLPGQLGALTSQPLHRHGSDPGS

[3] = molecular target: D(2) dopamine receptor (Homo sapiens, UniProt P14416); assay: Antagonist activity at human dopamine D2L receptor expressed in CHO cells assessed as inhibition of quinelorane-induced [35S]GTPgammaS binding; type: functional, cell-based
Sequence of D(2) dopamine receptor (P14416 whole entry): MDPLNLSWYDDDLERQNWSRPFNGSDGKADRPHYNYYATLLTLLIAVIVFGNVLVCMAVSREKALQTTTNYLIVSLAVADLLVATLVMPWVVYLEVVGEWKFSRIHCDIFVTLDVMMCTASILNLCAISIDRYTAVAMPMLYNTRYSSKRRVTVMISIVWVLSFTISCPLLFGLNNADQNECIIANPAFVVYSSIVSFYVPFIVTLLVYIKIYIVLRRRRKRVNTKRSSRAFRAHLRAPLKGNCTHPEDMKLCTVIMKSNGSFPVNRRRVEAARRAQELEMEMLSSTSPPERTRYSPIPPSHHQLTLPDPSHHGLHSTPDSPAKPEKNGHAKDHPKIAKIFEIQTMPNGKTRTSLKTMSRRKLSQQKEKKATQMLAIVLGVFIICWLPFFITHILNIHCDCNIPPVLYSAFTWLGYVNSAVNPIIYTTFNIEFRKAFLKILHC

[4] = test system: Liver microsomes; conditions: rat, 0.5 h, 0.5 µM
[5] = test system: Liver microsomes; conditions: human, 0.5 h, 0.5 µM
[6] = molecular target: Cytochrome P450 2D6 (Homo sapiens, UniProt P10635)
Sequence of Cytochrome P450 2D6 (P10635 whole entry): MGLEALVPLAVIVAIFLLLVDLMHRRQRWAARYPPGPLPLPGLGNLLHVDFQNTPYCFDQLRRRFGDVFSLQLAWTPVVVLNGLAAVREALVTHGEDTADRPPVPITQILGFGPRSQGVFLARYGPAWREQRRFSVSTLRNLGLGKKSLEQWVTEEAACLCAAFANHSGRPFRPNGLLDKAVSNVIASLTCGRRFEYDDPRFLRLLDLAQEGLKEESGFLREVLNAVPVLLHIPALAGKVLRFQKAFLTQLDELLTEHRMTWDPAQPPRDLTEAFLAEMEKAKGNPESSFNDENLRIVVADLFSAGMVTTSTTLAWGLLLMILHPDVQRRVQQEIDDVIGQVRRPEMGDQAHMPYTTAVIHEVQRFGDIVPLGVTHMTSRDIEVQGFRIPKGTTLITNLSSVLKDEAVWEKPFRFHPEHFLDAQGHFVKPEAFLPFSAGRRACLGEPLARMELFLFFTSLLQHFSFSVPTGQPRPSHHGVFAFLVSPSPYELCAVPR
Description: Inhibition of human CYP2D6

[7] = molecular target: T1, Cytochrome P450 1A2 (Homo sapiens, UniProt P05177)
T1 sequence (P05177 whole entry): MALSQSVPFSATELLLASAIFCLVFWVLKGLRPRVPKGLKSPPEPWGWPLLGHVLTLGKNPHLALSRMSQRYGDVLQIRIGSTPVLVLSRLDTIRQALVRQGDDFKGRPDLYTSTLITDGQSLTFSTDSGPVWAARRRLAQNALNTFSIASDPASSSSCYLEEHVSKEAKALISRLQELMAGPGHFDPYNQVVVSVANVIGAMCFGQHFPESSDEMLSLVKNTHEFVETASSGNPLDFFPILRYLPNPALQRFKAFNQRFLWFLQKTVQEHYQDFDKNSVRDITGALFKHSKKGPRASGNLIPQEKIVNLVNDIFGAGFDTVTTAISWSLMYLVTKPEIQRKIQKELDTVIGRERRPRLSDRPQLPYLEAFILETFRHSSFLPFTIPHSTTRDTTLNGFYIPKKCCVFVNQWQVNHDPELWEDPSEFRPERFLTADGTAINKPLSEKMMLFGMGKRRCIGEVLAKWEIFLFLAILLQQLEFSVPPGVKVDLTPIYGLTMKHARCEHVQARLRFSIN
Description: Inhibition of human CYP1A2

[8] = molecular target: Cytochrome P450 3A4 (Homo sapiens, UniProt P08684)
Sequence of Cytochrome P450 3A4 (P08684 whole entry): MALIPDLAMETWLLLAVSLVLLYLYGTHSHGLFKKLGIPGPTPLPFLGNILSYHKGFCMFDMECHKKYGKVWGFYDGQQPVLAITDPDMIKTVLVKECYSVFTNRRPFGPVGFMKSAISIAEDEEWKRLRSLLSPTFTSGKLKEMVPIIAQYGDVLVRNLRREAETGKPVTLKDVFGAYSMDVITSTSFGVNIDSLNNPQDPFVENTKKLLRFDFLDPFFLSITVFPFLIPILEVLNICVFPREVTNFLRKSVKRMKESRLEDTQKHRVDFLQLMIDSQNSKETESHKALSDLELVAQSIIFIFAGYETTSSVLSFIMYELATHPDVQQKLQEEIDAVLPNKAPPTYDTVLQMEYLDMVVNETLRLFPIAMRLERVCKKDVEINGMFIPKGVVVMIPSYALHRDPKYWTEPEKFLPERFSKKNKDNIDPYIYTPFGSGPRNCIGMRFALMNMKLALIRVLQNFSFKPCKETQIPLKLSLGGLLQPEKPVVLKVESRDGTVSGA
Description: Inhibition of human CYP3A4

[9] = molecular target: Cytochrome P450 2C9 (Homo sapiens, UniProt P11712)
Sequence of Cytochrome P450 2C9 (P11712 whole entry): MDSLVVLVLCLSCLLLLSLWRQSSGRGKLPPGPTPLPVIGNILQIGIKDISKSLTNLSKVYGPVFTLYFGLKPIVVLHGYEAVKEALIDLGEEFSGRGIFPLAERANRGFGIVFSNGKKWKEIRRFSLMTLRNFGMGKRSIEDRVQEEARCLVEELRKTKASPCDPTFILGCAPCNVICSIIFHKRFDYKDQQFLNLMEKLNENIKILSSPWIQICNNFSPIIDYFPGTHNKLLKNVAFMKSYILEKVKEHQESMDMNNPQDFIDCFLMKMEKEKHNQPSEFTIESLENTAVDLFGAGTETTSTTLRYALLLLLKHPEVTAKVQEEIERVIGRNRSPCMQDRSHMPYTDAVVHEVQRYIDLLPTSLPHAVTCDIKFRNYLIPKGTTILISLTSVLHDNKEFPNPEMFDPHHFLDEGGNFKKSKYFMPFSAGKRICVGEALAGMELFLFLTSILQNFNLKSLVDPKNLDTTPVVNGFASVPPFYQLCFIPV
Description: Inhibition of human CYP2C9

[10] = molecular target: Cytochrome P450 2C19 (Homo sapiens, UniProt P33261)
Sequence of Cytochrome P450 2C19 (P33261 whole entry): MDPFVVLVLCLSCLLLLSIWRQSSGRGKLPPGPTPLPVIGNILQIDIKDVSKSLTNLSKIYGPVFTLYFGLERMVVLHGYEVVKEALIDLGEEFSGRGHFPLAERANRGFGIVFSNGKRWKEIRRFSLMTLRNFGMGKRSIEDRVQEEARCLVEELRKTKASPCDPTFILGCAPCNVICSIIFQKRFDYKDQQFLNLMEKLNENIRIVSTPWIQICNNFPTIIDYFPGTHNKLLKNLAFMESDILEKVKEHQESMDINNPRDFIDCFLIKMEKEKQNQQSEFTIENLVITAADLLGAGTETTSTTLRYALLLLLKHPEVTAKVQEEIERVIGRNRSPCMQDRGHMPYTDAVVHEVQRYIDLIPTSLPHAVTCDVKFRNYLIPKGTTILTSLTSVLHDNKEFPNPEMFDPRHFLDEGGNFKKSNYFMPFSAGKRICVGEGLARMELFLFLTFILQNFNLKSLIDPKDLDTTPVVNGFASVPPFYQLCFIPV
Description: Inhibition of human CYP2C19

Sequence of D(3) dopamine receptor (P35462 whole entry): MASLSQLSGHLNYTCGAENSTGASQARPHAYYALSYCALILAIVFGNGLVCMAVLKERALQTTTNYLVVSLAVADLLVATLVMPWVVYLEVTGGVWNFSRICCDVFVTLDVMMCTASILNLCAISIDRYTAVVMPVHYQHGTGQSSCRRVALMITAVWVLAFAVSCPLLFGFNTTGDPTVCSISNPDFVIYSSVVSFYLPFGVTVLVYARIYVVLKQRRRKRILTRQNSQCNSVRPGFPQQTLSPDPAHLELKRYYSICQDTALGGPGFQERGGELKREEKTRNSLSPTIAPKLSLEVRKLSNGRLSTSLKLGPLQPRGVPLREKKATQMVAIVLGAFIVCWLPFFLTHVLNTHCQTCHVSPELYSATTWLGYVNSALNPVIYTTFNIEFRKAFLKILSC

Compound	Ki [1] [nM]	Ki [3] [nM]	other results
Cc1nc(C)c(-c2nnc(SCCCN3CCC4(CCc5ccc(F)cc54)C3)n2C)s1 (centres undefined)	50.1	398	IC50 [2]: 6310 nM
Cc1ncoc1-c1nnc(SCCCN2[C@@H]3CC[C@H]2C[C@@H](c2ccc(C(C)(C)C)cc2)C3)n1C	0.631	398	CL [4]: 7.9 mL/min/g; CL [5]: 0.9 mL/min/g; IC50 [6]: > 5000 nM; IC50 [7]: > 5000 nM; IC50 [8]: > 5000 nM; IC50 [9]: > 5000 nM; IC50 [10]: > 5000 nM
Cc1ncoc1-c1nnc(SCCCNC2CC3CC3(c3ccccc3)C2)n1C (centres undefined)	50.1	251	–
Cc1ncoc1-c1nnc(SCCCN2[C@@H]3CC[C@H]2C[C@@H](c2ccc(C(F)(F)F)cc2)C3)n1C	10	398	–
Cc1ncoc1-c1nnc(SCCCN2CCC3CC3(c3ccccc3)C2)n1C (centres undefined)	126	398	–
Cc1ncoc1-c1nnc(SCCCN2[C@@H]3CC[C@H]2C[C@@H](c2ccc(C(F)(F)F)cc2F)C3)n1C	6.31	> 3160	–
Cc1ncoc1-c1nnc(SCCCN2CCC3(c4ccccc4)CC3C2)n1C (centres undefined)	158	–	–
Cc1ncoc1-c1nnc(SCCCN2CCC3CC3(c3ccc(C(F)(F)F)cc3)C2)n1C (centres undefined)	7.94	501	IC50 [2]: 2000 nM
Cc1ncoc1-c1nnc(SCCCN2CCC3(c4ccc(C(F)(F)F)cc4)CC3C2)n1C (centres undefined)	39.8	–	–
Cc1ncoc1-c1nnc(SCCCN2CCC3CC3(c3cccc(C(F)(F)F)c3)C2)n1C (centres undefined)	12.6	–	–
Cc1ncoc1-c1nnc(SCCCN2CCC3(c4cccc(C(F)(F)F)c4)CC3C2)n1C (centres undefined)	6.31	2510	–
Cc1ncoc1-c1nnc(SCCCN2CCC3CC3(c3ccc(C(F)(F)F)cc3)CC2)n1C (centres undefined)	3.98	100	–
Cc1nc(C)c(-c2nnc(SCCCN3CCC4CC4(c4ccc(C(F)(F)F)cc4)CC3)n2C)o1 (centres undefined)	10	–	–
Cc1nc(C)c(-c2nnc(SCCCN3CCC4CC4(c4ccc(C(F)(F)F)cc4)CC3)n2C)s1 (centres undefined)	3.98	200	IC50 [2]: 631 nM
Cn1c(SCCCN2CCC3CC3(c3ccc(C(F)(F)F)cc3)CC2)nnc1-c1ccnnc1 (centres undefined)	3.98	398	–
Cc1ncoc1-c1nnc(SCCCN[C@@H]2CC[C@]3(c4ccc(C(F)(F)F)cc4F)CC23)n1C (some centres undefined)	3.16	200	IC50 [2]: 631 nM

Compound	Ki [1] [nM]	Ki [3] [nM]	other results
Cc1ncoc1-c1nnc(SCCCN[C@@H]2CC3C[C@]3(c3ccc(C(F)(F)F)cc3F)C2)n1C (some centres undefined)	31.6	> 3160	–
Cc1ncoc1-c1nnc(SCCCN2CCC3(CCCc4cc(Br)ccc43)C2)n1C (centres undefined)	7.94	–	–
Cc1ncoc1-c1nnc(SCCCN2CCC3(CCCc4ccc(Br)cc43)C2)n1C (centres undefined)	15.8	316	–
COc1ccc2c(c1)CCCC21CCN(CCCSc2nnc(-c3ocnc3C)n2C)C1 (centres undefined)	100	1000	–
COc1cccc2c1CCCC21CCN(CCCSc2nnc(-c3ocnc3C)n2C)C1 (centres undefined)	79.4	398	–
COc1ccc2c(c1)C1(CCC2)CCN(CCCSc2nnc(-c3ocnc3C)n2C)C1 (centres undefined)	31.6	–	–
Cc1ncoc1-c1nnc(SCCCN2CCC3(CCOc4ccccc43)C2)n1C (centres undefined)	100	> 3160	–
Cc1ncoc1-c1nnc(SCCCN2CCC3(CCc4cc(Br)ccc43)C2)n1C (centres undefined)	5.01	126	–
Cc1ncoc1-c1nnc(SCCCN2CCC3(CCc4c(Br)cccc43)C2)n1C (centres undefined)	7.94	251	–
Cc1ncoc1-c1nnc(SCCCN2CCC3(CCc4ccc(Br)cc43)C2)n1C (centres undefined)	2.51	39.8	–
Cc1nc(C)c(-c2nnc(SCCCN3CCC4(CCc5cc(Cl)ccc54)C3)n2C)s1 (centres undefined)	31.6	398	IC50 [2]: 2510 nM
Cc1ncoc1-c1nnc(SCCCN2CCC3(CCc4cc(F)ccc43)C2)n1C (centres undefined)	158	100	–
Cc1ncoc1-c1nnc(SCCCNC2CC[C@]3(c4ccc(C(F)(F)F)cc4)CC23)n1C (single isomer, unassigned)	251	> 3160	IC50 [2]: 2510 nM
Cc1ncoc1-c1nnc(SCCCN[C@@H]2CC[C@]3(c4ccc(C(F)(F)F)cc4)CC23)n1C (stereo in doubt; 22)	126	> 3160	IC50 [2]: 251 nM
Cc1ncoc1-c1nnc(SCCCN[C@@H]2CC[C@]3(c4ccc(C(F)(F)F)cc4)CC23)n1C (stereo in doubt; 24)	3.98	501	CL [4]: < 0.5 mL/min/g; CL [5]: < 0.5 mL/min/g; IC50 [6]: > 4000 nM; IC50 [7]: > 4000 nM; IC50 [2]: 631 nM; IC50 [8]: > 4000 nM; IC50 [9]: > 4000 nM; IC50 [10]: > 4000 nM
CCOc1ccc2c(c1)Oc1cc(OCC)ccc1C21OC(=O)c2ccccc21 [DIETHOXYFLOURESCEIN]	–	–	IC50 [8]: 1000 nM
